Test results published in patent US20090004185A1, “AMINO-SUBSTITUTED QUINAZOLINE DERIVATIVES AS INHIBITORS OF BETA-CATENIN/TCF-4 PATHWAY AND CANCER TREATMENT AGENTS” (WYETH, priority 2007, published 2009).

Legend:
[1] = test system: SV40-Luc; experiment: SV40-Luc control luciferase reporter assay, SV 5A8 cell line (SV40-Luc and SV40-R-Luc), control for non-specific inhibitors; format: cell-based, human; settings: SV 5A8 cells derived from SW480, 24 hours of incubation with compound, ratio Firefly/Renilla luciferase
Source text: Background cell line: SW480 colorectal carcinoma DNA constructs: […]
(§1) 2) SV40-Luc: SV40 binding site driving Firefly Luciferase in the pGL3 vector—as a control for non-specific inhibitors; and
(§2) 3) SV40-R-Luc: SV40 binding site driving Renilla Luciferase in the pGL3 vector—as an internal control for cell number and toxicity.
This screen uses 3 cell lines derived from SW480 and selected to contain the above luciferase reporters integrated into their chromosomes as follows:
SV 5A8—SV40-Luc and SV40-R-Luc
(§3) Cells: Tcf22C11 and SV5A8 were grown in the presence of 500 μg/ml G418 and Tcf 33.13 was grown in the presence of 500 μg/ml G418+125 μg/ml Zeocin to maintain the integrated reporters. The cells were trypsinized and plated at 1×10^4 cells/well in opaque 96 well plates.
(§4) Compounds: 20-24 hours after cell plating, compounds were added at titrated concentrations between 10 μg/ml and 10 μg/ml. The compounds were diluted as follows: The compounds were stored frozen in dimethyl sulfoxide (DMSO) at […]. Compounds were initially titrated in DMSO to make a 1000×DMSO stock solution. Compounds were then diluted 1:25 into media/DMSO (DMEM+10% FBS+9% DMSO). Using the Biomek Multimek, the diluted compounds were mixed well and immediately added to the plated cells in a 1:40 dilution. The final concentration of DMSO in the assay plates was 0.316% DMSO.
(§5) Assay Readout: The luciferase signal was detected using a luciferase detection kit from Promega. Until December 2003, Promega's Dual-Luciferase® Reporter (DLR™) Assay System was used to detect luciferase activity. Briefly, after 24 hours of incubation with compound, culture media was removed by aspiration and 20 ul of passive lysis buffer (Promega) per well was added. The plates were shaken for 15 min. Firefly substrate was then added and the resulting luminescence was immediately read on a CCD camera imaging device or a luminometer. After quantifying the firefly luminescence, the reaction was quenched, and the Renilla luciferase reaction was initiated simultaneously by adding Stop & Glo® Reagent to the same sample. Renilla luciferase was then quantified using the CCD camera or luminometer.
(§6) Promega's Dual-Glo™ Luciferase Assay System can be used for luciferase detection. It was similar to the DLR Assay, however, unlike the DLR which has to be read immediately due to decaying signal, the signal in the Dual-Glo™ Luciferase Assay was stable for up to 2 hours. Briefly, after 24 hours of incubation with compound, culture media was removed by aspiration and 75 ul of fresh medium was added. Add 75 ul of Dual-Glo Luciferase Reagent (Promega) to each well and mix by shaking for 10 minutes on a plate shaker. Then, measure the firefly luminescence on a CCD camera imaging device or a luminometer. After quantifying the firefly luminescence, add 75 ul of Dual-Glo Stop & Glo Reagent (Promega) to each well and mix for 10 minutes. Renilla luciferase was then quantified using the CCD camera or luminometer.
(§7) This assay was meant to confirm primary leads and determine IC50s. Compounds were tested at titrated dilutions. The raw data for this assay was reported in protocol 2463-B. Protocol 2463-C contains the IC50 calculations based on the raw data. The data calculations were done as follows:
(§8) The data was expressed as % of control for both Firefly and Renilla Luciferase. The ratio of FF/Renilla (F/R) was then calculated and averaged between duplicate plates. The data was then plotted using LSW Data Analysis in Microsoft Excel. IC50s were determined by plotting the data in the LSW Data Analysis program using model 33. The IC50s (nM) for all three cell lines were reported.

[2] = test system: β-catenin/Tcf-4; experiment: cells; format: cell-based; settings: 24 hours of incubation with compound, ratio Firefly/Renilla luciferase
Source text: Background cell line: SW480 colorectal carcinoma DNA constructs:
1) Tcf-4-Luc: Tcf-4 binding sites driving Firefly Luciferase in the pGL3 vector—to measure the activity of β-catenin/Tcf-4;
as §1, §2
This screen uses 3 cell lines derived from SW480 and selected to contain the above luciferase reporters integrated into their chromosomes as follows: […]
as §3
as §4, with “The” for “Compounds: 20-24 hours after cell plating, compounds were added at titrated concentrations between 10 μg/ml and 10 μg/ml. The”
as §5
as §6, with “It was similar to the DLR Assay, however, unlike the DLR which has to be read immediately due to decaying signal, the signal in the Dual-Glo™ Luciferase Assay was stable for up to 2 hours.” left out
as §7, §8

[3] = Homo sapiens, SW480, 24 h, Tcf 33.13 cells derived from SW480
[4] = Homo sapiens, Tcf22C11, 24 h, Tcf 22C11 cells derived from SW480
[5] = Tcf 22C11 cells derived from SW480
[6] = Tcf 33.13 cells derived from SW480

CNc1nc(NCc2ccc(NC(=O)C3CCN(Cc4ccccc4)CC3)cc2)c2cc(C)ccc2n1 [Example 149, 1-benzyl-N-[4-({[6-methyl-2-(methylamino)quinazolin-4-yl]amino}methyl)phenyl]piperidine-4-carboxamide]
IC50 ([1]; Homo sapiens, SV5A8, 24 h): > 2530 nM
IC50 [2, 3]: 726 nM
IC50 [2, 4]: 606 nM

CNc1nc(NCc2ccc(NC(=O)c3ccc(C#N)cc3)cc2)c2cccc(C)c2n1 [Example 266, 4-cyano-N-[4-({[8-methyl-2-(methylamino)quinazolin-4-yl]amino}methyl)phenyl]benzamide]
IC50 ([1]; Homo sapiens, SV5A8, 24 h): > 4660 nM
IC50 [2, 3]: 962 nM
IC50 [2, 4]: 1100 nM

CNc1nc(NCc2ccc(NC(=O)c3ccc(OC(F)(F)F)cc3)cc2)c2ccccc2n1 [Example 22, N-[4-({[2-(methylamino)quinazolin-4-yl]amino}methyl)phenyl]-4-(trifluoromethoxy)benzamide]
IC50 ([1]; Homo sapiens, SV5A8, 24 h): > 2670 nM
IC50 [2, 3]: 1230 nM
IC50 [2, 4]: 1380 nM

Cc1ccc2nc(N3CCNCC3)nc(NCc3ccc(NC(=O)c4ccc(F)cc4)cc3)c2c1 [Example 45]
IC50 [1]: > 10600 nM
IC50 [2, 5]: 1800 nM
IC50 [2, 6]: 1480 nM

CCN(CC)c1nc(NCc2ccc(NC(=O)c3ccc(F)cc3)cc2)c2cc(C)ccc2n1 [Example 43, N-[4-((2-(diethylamino)-6-methylquinazolin-4-ylamino)methyl)phenyl)-4-fluorobenzamide]
IC50 ([1]; Homo sapiens, SV5A8, 24 h): > 5460 nM
IC50 [2, 3]: 492 nM
IC50 [2, 4]: 738 nM

CN(C)c1nc(NCc2ccc(NC(=O)c3ccc(F)cc3)cc2)c2ccc(-c3ccccc3C=O)cc2n1 [Example 98, N-[4-({[2-(dimethylamino)-7-(2-formylphenyl)quinazolin-4-yl]amino}methyl)phenyl]-4-fluorobenzamide]
IC50 ([1]; Homo sapiens, SV5A8, 24 h): > 19200 nM
IC50 [2, 3]: 2960 nM
IC50 [2, 4]: > 2410 nM

CN(C)c1nc(NCc2ccc(NC(=O)C3CCN(Cc4ccccc4)CC3)cc2)c2cc(I)ccc2n1 [Example 74, 1-benzyl-N-[4-({[2-(dimethylamino)-6-iodoquinazolin-4-yl]amino}methyl)phenyl]piperidine-4-carboxamide]
IC50 ([1]; Homo sapiens, SV5A8, 24 h): > 8060 nM
IC50 [2, 3]: 1380 nM
IC50 [2, 4]: 950 nM

Cc1ccc2nc(N(C)C)nc(N[C@@H](C)c3ccc(NC(=O)c4ccc(Cl)nc4)cc3)c2c1 [Example 274, (S)-6-chloro-N-(4-(1-(2-(dimethylamino)-6-methylquinazolin-4-ylamino)ethyl)phenyl)nicotinamide]
IC50 ([1]; Homo sapiens, SV5A8, 24 h): > 9360 nM
IC50 [2, 3]: 1840 nM
IC50 [2, 4]: 1010 nM

CNc1nc(NCc2ccc(NC(=O)c3ccc(Cl)cc3F)cc2)c2ccccc2n1 [Example 14, 4-chloro-2-fluoro-N-[4-({[2-(methylamino)quinazolin-4-yl]amino}methyl)phenyl]benzamide]
IC50 ([1]; Homo sapiens, SV5A8, 24 h): > 2870 nM
IC50 [2, 3]: 1290 nM
IC50 [2, 4]: 891 nM

Cc1ccc2c(NCc3ccc(NC(=O)C4CCN(Cc5ccc(Cl)c(F)c5)CC4)cc3)nc(N(C)C)nc2c1 [Example 263, 1-(4-chloro-3-fluorobenzyl)-N-[4-({[2-(dimethylamino)-7-methylquinazolin-4-yl]amino}methyl)phenyl]piperidine-4-carboxamide]
IC50 ([1]; Homo sapiens, SV5A8, 24 h): > 1970 nM
IC50 [2, 3]: 410 nM
IC50 [2, 4]: 422 nM

CNc1nc(NCc2ccc(NC(=O)C3CCN(Cc4ccc(F)cc4)CC3)cc2)c2cc(C(F)(F)F)ccc2n1 [Example 160]
IC50 [1]: > 4410 nM
IC50 [2, 5]: 1450 nM
IC50 [2, 6]: > 2210 nM

CNc1nc(NCc2ccc(NC(=O)c3ccc(-c4ccccc4)cc3)cc2)c2ccccc2n1 [Example 15, N-[4-({[2-(methylamino)quinazolin-4-yl]amino}methyl)phenyl]biphenyl-4-carboxamide]
IC50 ([1]; Homo sapiens, SV5A8, 24 h): > 5440 nM

CCc1ccc2c(NCc3ccc(NC(=O)c4ccc(F)cc4)cc3)nc(N(C)C)nc2c1 [Example 88, N-[4-({[2-(dimethylamino)-7-ethylquinazolin-4-yl]amino}methyl)phenyl]-4-fluorobenzamide]
IC50 ([1]; Homo sapiens, SV5A8, 24 h): > 2600 nM

CNc1nc(NCc2ccc(NC(=O)c3ccc(C)cc3)cc2)c2ccccc2n1 [Example 12, 4-methyl-N-[4-({[2-(methylamino)quinazolin-4-yl]amino}methyl)phenyl]benzamide]
IC50 ([1]; Homo sapiens, SV5A8, 24 h): > 25200 nM

CNc1nc(NCc2ccc(NC(=O)c3ccc(F)cc3)cc2)c2ccc(C)cc2n1 [Example 230, 4-fluoro-N-[4-({[7-methyl-2-(methylamino)quinazolin-4-yl]amino}methyl)phenyl]benzamide]
IC50 ([1]; Homo sapiens, SV5A8, 24 h): > 752 nM

CNc1nc(NCc2ccc(NC(=O)c3ccc(Cl)cc3)cc2)c2ccccc2n1 [Example 10, 4-chloro-N-[4-({[2-(methylamino)quinazolin-4-yl]amino}methyl)phenyl]benzamide]
IC50 ([1]; Homo sapiens, SV5A8, 24 h): 2190 nM

CNc1nc(NCc2ccc(NC(=O)c3cccc(Cl)c3)cc2)c2ccccc2n1 [Example 11, 3-chloro-N-[4-({[2-(methylamino)quinazolin-4-yl]amino}methyl)phenyl]benzamide]
IC50 ([1]; Homo sapiens, SV5A8, 24 h): > 5980 nM

CN(C)c1nc(NCc2ccc(NC(=O)c3ccc(F)cc3)cc2)c2ccc(I)cc2n1 [Example 86, N-[4-({[2-(dimethylamino)-7-iodoquinazolin-4-yl]amino}methyl)phenyl]-4-fluorobenzamide]
IC50 ([1]; Homo sapiens, SV5A8, 24 h): > 18500 nM

Cc1ccc2c(NCc3ccc(NC(=O)c4ccc(F)cc4)cc3)nc(N3CCNCC3)nc2c1 [Example 208, 4-fluoro-N-(4-{[(7-methyl-2-piperazin-1-ylquinazolin-4-yl)amino]methyl}phenyl)benzamide]
IC50 ([1]; Homo sapiens, SV5A8, 24 h): > 2660 nM

Cc1ccc2c(NCc3ccc(NC(=O)c4ccc(F)cc4)cc3)nc(N3CCN[C@H](C)C3)nc2c1 [Example 225, 4-fluoro-N-{4-[({7-methyl-2-[(3R)-3-methylpiperazin-1-yl]quinazolin-4-yl}amino)methyl]phenyl}benzamide]
IC50 ([1]; Homo sapiens, SV5A8, 24 h): > 2580 nM

Cc1ccc2c(NCc3ccc(NC(=O)c4ccc(F)cc4)cc3)nc(N3CCCCC3)nc2c1 [Example 206, 4-fluoro-N-(4-{[(7-methyl-2-piperidin-1-ylquinazolin-4-yl)amino]methyl}phenyl)benzamide]
IC50 ([1]; Homo sapiens, SV5A8, 24 h): > 2660 nM

Cc1ccc2c(NCc3ccc(NC(=O)c4ccc(F)cc4)cc3)nc(N3CCN(C)CC3)nc2c1 [Example 204, 4-fluoro-N-[4-({[7-methyl-2-(4-methylpiperazin-1-yl)quinazolin-4-yl]amino}methyl)phenyl]benzamide]
IC50 ([1]; Homo sapiens, SV5A8, 24 h): > 10300 nM

CNc1nc(NCc2ccc(NC(=O)c3ccc(Cl)nc3)cc2)c2ccccc2n1 [Example 3, 6-chloro-N-[4-({[2-(methylamino)quinazolin-4-yl]amino}methyl)phenyl]nicotinamide]
IC50 ([1]; Homo sapiens, SV5A8, 24 h): > 2980 nM
